Measurements reported in PubChem BioAssay AID1963869 (Molecular Pharmacology Branch, DTP, NCI, 2024).

System: KRAS patient-derived spheroids with HUVEC/MSC, viability
Assay: Anticancer human tumor 323965-272-R-J2-PDC patient-derived pancreatic carcinoma cell line growth inhibition [KRAS2]
Conditions: for IC50: curve of first compound; for viability, T/C: stronger effect = lower value
Method in brief: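 KRAS-mutant tumor cells were grown as spheroids with HUVEC endothelial cells and human MSCs as stroma. Targeted agents were tested alone and with KRAS pathway inhibitors. Doses started at or near clinical Cmax, or 10 microM, descending half-log.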

[1] = second compound 0.1 µM, first compound 0.01 µM
[2] = second compound 0.1 µM, first compound 0.0316 µM
[3] = second compound 0.1 µM, first compound 0.1 µM
[4] = second compound 0.1 µM, first compound 0.316 µM
[5] = second compound 0.1 µM, first compound 1 µM
[6] = second compound 0.1 µM, first compound 3.16 µM
[7] = second compound 0.316 µM, first compound 0.01 µM
[8] = second compound 0.316 µM, first compound 0.0316 µM
[9] = second compound 0.316 µM, first compound 0.1 µM
[10] = second compound 0.316 µM, first compound 0.316 µM
[11] = second compound 0.316 µM, first compound 1 µM
[12] = second compound 0.316 µM, first compound 3.16 µM
[13] = second compound 1 µM, first compound 0.01 µM
[14] = second compound 1 µM, first compound 0.0316 µM
[15] = second compound 1 µM, first compound 0.1 µM
[16] = second compound 1 µM, first compound 0.316 µM
[17] = second compound 1 µM, first compound 1 µM
[18] = second compound 1 µM, first compound 3.16 µM
[19] = second compound 3.16 µM, first compound 0.01 µM
[20] = second compound 3.16 µM, first compound 0.0316 µM
[21] = second compound 3.16 µM, first compound 0.1 µM
[22] = second compound 3.16 µM, first compound 0.316 µM
[23] = second compound 3.16 µM, first compound 1 µM
[24] = second compound 3.16 µM, first compound 3.16 µM
[25] = second compound 10 µM, first compound 0.0316 µM
[26] = second compound 10 µM, first compound 0.1 µM
[27] = second compound 10 µM, first compound 0.316 µM
[28] = second compound 10 µM, first compound 1 µM
[29] = second compound 10 µM, first compound 3.16 µM
[30] = second compound 0.1 µM, first compound 10 µM
[31] = second compound 0.316 µM, first compound 10 µM
[32] = second compound 1 µM, first compound 10 µM
[33] = second compound 3.16 µM, first compound 10 µM
[34] = second compound 10 µM, first compound 10 µM
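Further: spheroids exposed to agents for 7 days.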
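Wherever viability, T/C is given: 100% = DMSO vehicle control viability.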

SMILES	IC50 (second compound 0.1 µM)	IC50 (second compound 0.316 µM)	IC50 (second compound 1 µM)	IC50 (second compound 3.16 µM)	viability, T/C [2]	viability, T/C [3]	viability, T/C [4]	viability, T/C [5]	viability, T/C [6]	viability, T/C [8]	viability, T/C [9]	viability, T/C [10]	viability, T/C [11]	viability, T/C [12]	viability, T/C [14]	viability, T/C [15]	viability, T/C [16]	viability, T/C [17]	viability, T/C [18]	viability, T/C [20]	further results
CC1COCCN1c1cc(-c2ccnn2C)c2ccnc(-c3ccn[nH]3)c2n1 (stereo not given) + COc1cc2nc(C)nc(NC(C)c3cc(N)cc(C(F)(F)F)c3)c2cc1OC1CCOC1	14.9 nM	11 nM	11.3 nM	10.5 nM	26.8%	16.5%	12.8%	11.5%	12.2%	24.2%	13.1%	12%	11.6%	11.6%	21.4%	12.4%	10.3%	10%	11%	19.5%	IC50 (second compound 10 µM): < 10 nM; viability, T/C [1]: 62%; viability, T/C [7]: 52.5%; viability, T/C [13]: 53.5%; viability, T/C [19]: 51.4%; viability, T/C [21]: 9.99%; viability, T/C [22]: 9.71%; viability, T/C [23]: 9.06%; viability, T/C [24]: 9.91%; viability, T/C (second compound 10 µM, first compound 0.01 µM): 41.9%; viability, T/C [25]: 20.9%; viability, T/C [26]: 9.39%; viability, T/C [27]: 9.15%; viability, T/C [28]: 7.92%; viability, T/C [29]: 6.55%
CC(C)NCC(C(=O)N1CCN(c2ncnc3c2C(C)CC3O)CC1)c1ccc(Cl)cc1 (stereo not given) + CNCc1ccccc1-c1csc(C(C)Nc2nc(C)nc3cc(OC)c(OC)cc23)c1	1570 nM	1060 nM	1330 nM	532 nM	90.9%	85.4%	70.6%	55.8%	41.7%	94.2%	85.2%	72.9%	48.1%	41.4%	94.9%	91.8%	79.9%	54.4%	36.7%	88.3%	IC50 (second compound 10 µM): < 31.6 nM; viability, T/C [30]: 36%; viability, T/C [31]: 33%; viability, T/C [32]: 32.9%; viability, T/C [21]: 73.2%; viability, T/C [22]: 58.5%; viability, T/C [23]: 43%; viability, T/C [24]: 21.5%; viability, T/C [33]: 18%; viability, T/C [25]: 0.27%; viability, T/C [26]: 0.28%; viability, T/C [27]: 0.23%; viability, T/C [28]: 0.59%; viability, T/C [29]: 0.71%; viability, T/C [34]: 0.19%
CC1COCCN1c1cc(-c2ccnn2C)c2ccnc(-c3ccn[nH]3)c2n1 (stereo not given) + C=CC(=O)N1CCN(c2nc(OCC3CCCN3C)nc3c2CCN(c2cccc4cccc(C)c24)C3)CC1CC#N	12 nM	< 10 nM	< 10 nM	< 10 nM	27.4%	15.2%	14.8%	12.9%	12.1%	21.7%	14%	12.2%	11.2%	10.6%	18.2%	10.8%	11.1%	12.2%	11.8%	4.03%	IC50 (second compound 0.0316 µM): < 10 nM; viability, T/C (second compound 0.0316 µM, first compound 0.01 µM): 49.2%; viability, T/C (second compound 0.0316 µM, first compound 0.0316 µM): 26.8%; viability, T/C (second compound 0.0316 µM, first compound 0.1 µM): 18.7%; viability, T/C (second compound 0.0316 µM, first compound 0.316 µM): 16.4%; viability, T/C (second compound 0.0316 µM, first compound 1 µM): 13.9%; viability, T/C (second compound 0.0316 µM, first compound 3.16 µM): 12.6%; viability, T/C [1]: 54.5%; viability, T/C [7]: 41.4%; viability, T/C [13]: 33%; viability, T/C [19]: 5.59%; viability, T/C [21]: 3.06%; viability, T/C [22]: 1.93%; viability, T/C [23]: 1.48%; viability, T/C [24]: 2.61%
COc1cc(Nc2ncc3c(n2)-c2ccc(Cl)cc2C(c2c(F)cccc2OC)=NC3)ccc1C(=O)O + COc1cc2nc(C)nc(NC(C)c3cc(N)cc(C(F)(F)F)c3)c2cc1OC1CCOC1	92.4 nM	73.5 nM	< 31.6 nM	< 31.6 nM	76.5%	47.3%	35.6%	44.1%	53.4%	66.2%	45.3%	35.7%	37.5%	51.5%	62.2%	39.6%	33%	38.8%	44.9%	56.8%	IC50 (second compound 10 µM): < 31.6 nM; viability, T/C [30]: 59.1%; viability, T/C [31]: 58.5%; viability, T/C [32]: 51.2%; viability, T/C [21]: 34.4%; viability, T/C [22]: 28.4%; viability, T/C [23]: 37.8%; viability, T/C [24]: 44.3%; viability, T/C [33]: 51.1%; viability, T/C [25]: 63.4%; viability, T/C [26]: 20.3%; viability, T/C [27]: 24%; viability, T/C [28]: 41.6%; viability, T/C [29]: 42.8%; viability, T/C [34]: 36.9%
COc1cc2nccc(Oc3ccc(NC(=O)C4(C(=O)Nc5ccc(F)cc5)CC4)cc3)c2cc1OC + COc1cc2nc(C)nc(NC(C)c3cc(N)cc(C(F)(F)F)c3)c2cc1OC1CCOC1	> 10000 nM	> 10000 nM	> 10000 nM	9980 nM	86.5%	86.5%	84.1%	86.5%	75.7%	76%	85.7%	88%	82.2%	84.7%	84.4%	79.8%	84.5%	82.8%	74.1%	87.1%	IC50 (second compound 10 µM): 3890 nM; viability, T/C [30]: 86.2%; viability, T/C [31]: 75.2%; viability, T/C [32]: 66.3%; viability, T/C [21]: 85.3%; viability, T/C [22]: 95.3%; viability, T/C [23]: 89.6%; viability, T/C [24]: 79%; viability, T/C [33]: 49.5%; viability, T/C [25]: 85.4%; viability, T/C [26]: 93.6%; viability, T/C [27]: 84.9%; viability, T/C [28]: 84.3%; viability, T/C [29]: 59.1%; viability, T/C [34]: 7.87%
